Laboratory results taken from patent US6423700B1, “17-halogenated 19-nor steroids, method and intermediates for preparing same, use as medicines and pharmaceutical compositions containing same” (Aventis Pharma S.A., priority 1998, dated 2002).
“And” between values parts separate entries of the source, which are not always exact repeats. Equal values may be shown once.

What was measured:
[1] = system: MCF-7 human mammary cells; test: Effect on the proliferation of mammary cells (MCF-7, determination of the DNA); assay type: cell-based; parameters: key: Agonist: the effect of the oestradiol at 10^−10M (cell growth in the presence of oestradiol less cell growth in the presence of the solvent) determines the 100% agonist activity; Inactive: molecules inducing an identical cell growth to that observed with the solvent alone are classified as “inactive”; Inhibitor: those inducing a lower cell growth to that observed with the solvent are classified as “inhibitor”; settings: 7 days culture in steroid-free medium; compared with oestradiol at 10^−10M = 100% agonist activity
Experimental: Effect on the Proliferation of Mammary Cells The proliferative activity of the molecules is studied in comparison to that of oestradiol on MCF-7 human mammary cells in culture. […] Cells undergo this severance two days before the start of the test. After 7 days culture in the presence of the products to be studied, the cell proliferation is evaluated by determination of the DNA. In each test, the effect of the oestradiol at 10^−10M (cell growth in the presence of oestradiol less cell growth in the presence of the solvent) determines the 100% agonist activity. The activity of the molecules is evaluated in comparison to this internal control.

[2] = system: ovariectomized female rat; test: Bone impact study in the ovariectomized female rat at the age of 3 months (tibia BMD, uterus weight, serum cholesterol); assay type: in vivo; settings: OVX rat; for UTERUS Weight % / Cholesterol %: 4 weeks; for UTERUS Weight %: increase in % of uterus weight of OVX animals receiving solvent; for Cholesterol %: serum cholesterol change in % relative to OVX animals receiving solvent; for TIBIA BONE BMD %: OVX=0, SHAM=100
Experimental: Bone impact study of a product in the ovariectomized female rat at the age of 3 months The compounds are tested in order to determine their effect on the bone mass and on the formation and resorption activity in the model of the ovariectomized rat at the age of 3 months. The animals are treated in a preventive fashion. [table] 1—Product to be tested: Product of Example 1. vehicle(s): corn oil, 0.5% methylcellulose number of administrations: once/day; 5 days/week for 4 weeks administration route: oral route for the product 2—Reference product: 17β oestradiol is administered by subcutaneous route at a dose of 0.1 or 0.01 mg/kg/d in solution in a mixture of corn oil-benzyl alcohol (99:1, v/v) under a volume of 0.2 ml/kg. The study is carried out with female rats ovariectomized at the age of 3 months. The animals are kept in an air-conditioned room (temperature 20° C.±2° C.) and grouped by 4 into boxes. The animals receive, ad libitum, demineralized water and compressed foods (pellets: AO4CR-10 UAR). The 3 month old female rats weighing approximately 250 g are ovariectomized under anaesthesia with Imalgene 1000, at a dose of 100 mg/kg by intraperitoneal route (i.p.) and under a volume of 1 ml/kg. They also receive Nembutal (3 mg/kg i.p. under a volume of 0.3 ml/kg). The effects of the products are determined in a preventive treatment. They are administered immediately after the ovariectomy. Animals are distributed into groups of 8. Group 1: “SHAM” control rats receiving the vehicle or vehicles. Group 2: “OVX” control rats receiving the vehicle or vehicles. Groups X: “OVX” rats receiving respectively defined doses of the product or products to be tested. At the end of 4 weeks (duration of the study) the animals are decapitated by guillotine. The serums collected after centrifugation are preserved at −20° C. A lipidic balance will be established from the serous determinations of total cholesterol, of triglycerides and of phospholipids on a 500 μl aliquot of serum. Lowering of the serous cholesterol level is expressed in % relative to the level shown by the ovariectomized animals receiving only the solvent. The uteri are removed. The latter are weighed. The increase in weight is expressed in % of the weight of the uterus of ovariectomized animals receiving only the solvent. The bone mass (BMD or bone mineral density) is measured by biphotonic dual energy X-ray absorptiometry (DEXA). The measurements are carried out on bone excized and cleaned of all soft tissue. The BMD (bone mineral density) is measured on the whole bone as well as on the metaphyseal part at the level of the proximal extremity for the left tibia. This zone is defined as being the region which is richest in trabecular bone; and consequently, is the most sensitive to variations in bone volume and bone mineral density. The results are expressed in % according to the formula: […]

[3] = 0.3 mg/kg po, listed as Ex. 1, 0.3 mg/kg

SMILES: COc1ccc2c(c1)CC[C@@H]1[C@@H]2[C@@H](c2ccc(OCCN3CCCC3)cc2)C[C@]2(C)[C@H](F)CC[C@@H]12
- melting point: 132 °C

SMILES: C[C@]12C[C@H](c3ccc(OCCN4CCCCC4)cc3)[C@@H]3c4ccc(O)cc4CC[C@H]3[C@@H]1CC=C2I.Cl
- melting point: 260 °C

SMILES: CC1CCN(CCOc2ccc([C@H]3C[C@]4(C)[C@H](F)CC[C@H]4[C@@H]4CCc5cc(O)ccc5[C@H]43)cc2)CC1.Cl
- melting point: 200 °C

SMILES: C[C@]12C[C@H](c3ccc(OCCN4CCCCC4)cc3)[C@@H]3c4ccc(O)cc4CC[C@H]3[C@@H]1CC[C@H]2F [Example 1, 17 alpha-fluoro-11 beta-[4-[2-(1-piperidinyl)ethoxy]phenyl]-estra-1,3,5(10)-trien-3-ol]
- ACTIVITY (proliferative activity on MCF-7 cells) [1]: Inactive
- UTERUS Weight % ([2]; 0.1 mg/kg po): 67%
- Cholesterol % ([2]; 0.1 mg/kg po): −49%
- TIBIA BONE BMD % ([2]; 0.1 mg/kg po, once/day 5 days/week 4 weeks): 57%
- UTERUS Weight % [2, 3]: 70% and 41%
- Cholesterol % [2, 3]: −59% and −51%
- TIBIA BONE BMD % ([2]; 0.3 mg/kg po, once/day 5 days/week 4 weeks, listed as Ex. 1, 0.3 mg/kg): 71% and 73%
- UTERUS Weight % ([2]; 1.0 mg/kg po): 93%
- Cholesterol % ([2]; 1.0 mg/kg po): −61%
- TIBIA BONE BMD % ([2]; 1.0 mg/kg po, once/day 5 days/week 4 weeks): 72%

SMILES: C[C@]12C[C@H](c3ccc(OCCN4CCCCC4)cc3)[C@@H]3c4ccc(O)cc4CC[C@H]3[C@@H]1CC[C@H]2F.Cl [Example 2, 17 alpha-fluoro-11-beta-[4-[2-(1-piperidinyl)ethoxy]phenyl]-estra-1,3,5(10)-trien-3-ol hydrochloride]
- ACTIVITY (proliferative activity on MCF-7 cells) [1]: Inactive

SMILES: C[C@]12CC[C@@H]3c4ccc(O)cc4CC[C@H]3[C@@H]1CC[C@@H]2O [Oestradiol, 17β oestradiol, reference compound]
- ACTIVITY (proliferative activity on MCF-7 cells) [1]: Agonist
- TIBIA BONE BMD % ([2]; 0.01 mg/kg s.c., 4 weeks preventive): 95%
- UTERUS Weight % ([2]; 0.01 mg/kg s.c.): 317%
- Cholesterol % ([2]; 0.01 mg/kg s.c.): −16%
- TIBIA BONE BMD % ([2]; 0.1 mg/kg s.c., 4 weeks preventive): 139%
- UTERUS Weight % ([2]; 0.1 mg/kg s.c.): 220%
- Cholesterol % ([2]; 0.1 mg/kg s.c.): −3%
